Read-outs that look alike come from different tables or passages of the source.
What was measured:
[1] = molecular target: Epidermal Growth Factor Receptor (EGFR) (Homo sapiens (Human), UniProt P00533); experiment: EGFR kinase assay (TR-FRET); type: biochemical; conditions: read-out: EGFR kinase inhibition IC50
How it was run: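 Read-out is the 665/620 nm HTRF ratio, from a Tb-cryptate anti-phosphotyrosine antibody and streptavidin-XL665 bound to phosphorylated biotin-peptide substrate. The enzyme, A431-derived EGFR (~3 U/ml), was given 15 min compound pre-binding at 22° C in Hepes pH 7.0 with Mg2+/Mn2+ before reaction.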

[2] = molecular target: K-Ras^G12C : hSOS1 interaction (Homo sapiens, UniProt Q07889); experiment: Biochemical assay 1: K-Ras^G12C interaction assay with hSOS1 (HTRF); type: binding; conditions: read-out: Assay 1 (KRAS-SOS Interaction) activity expressed as IC50

Chain of Epidermal Growth Factor Receptor (EGFR) (P00533 25-1210): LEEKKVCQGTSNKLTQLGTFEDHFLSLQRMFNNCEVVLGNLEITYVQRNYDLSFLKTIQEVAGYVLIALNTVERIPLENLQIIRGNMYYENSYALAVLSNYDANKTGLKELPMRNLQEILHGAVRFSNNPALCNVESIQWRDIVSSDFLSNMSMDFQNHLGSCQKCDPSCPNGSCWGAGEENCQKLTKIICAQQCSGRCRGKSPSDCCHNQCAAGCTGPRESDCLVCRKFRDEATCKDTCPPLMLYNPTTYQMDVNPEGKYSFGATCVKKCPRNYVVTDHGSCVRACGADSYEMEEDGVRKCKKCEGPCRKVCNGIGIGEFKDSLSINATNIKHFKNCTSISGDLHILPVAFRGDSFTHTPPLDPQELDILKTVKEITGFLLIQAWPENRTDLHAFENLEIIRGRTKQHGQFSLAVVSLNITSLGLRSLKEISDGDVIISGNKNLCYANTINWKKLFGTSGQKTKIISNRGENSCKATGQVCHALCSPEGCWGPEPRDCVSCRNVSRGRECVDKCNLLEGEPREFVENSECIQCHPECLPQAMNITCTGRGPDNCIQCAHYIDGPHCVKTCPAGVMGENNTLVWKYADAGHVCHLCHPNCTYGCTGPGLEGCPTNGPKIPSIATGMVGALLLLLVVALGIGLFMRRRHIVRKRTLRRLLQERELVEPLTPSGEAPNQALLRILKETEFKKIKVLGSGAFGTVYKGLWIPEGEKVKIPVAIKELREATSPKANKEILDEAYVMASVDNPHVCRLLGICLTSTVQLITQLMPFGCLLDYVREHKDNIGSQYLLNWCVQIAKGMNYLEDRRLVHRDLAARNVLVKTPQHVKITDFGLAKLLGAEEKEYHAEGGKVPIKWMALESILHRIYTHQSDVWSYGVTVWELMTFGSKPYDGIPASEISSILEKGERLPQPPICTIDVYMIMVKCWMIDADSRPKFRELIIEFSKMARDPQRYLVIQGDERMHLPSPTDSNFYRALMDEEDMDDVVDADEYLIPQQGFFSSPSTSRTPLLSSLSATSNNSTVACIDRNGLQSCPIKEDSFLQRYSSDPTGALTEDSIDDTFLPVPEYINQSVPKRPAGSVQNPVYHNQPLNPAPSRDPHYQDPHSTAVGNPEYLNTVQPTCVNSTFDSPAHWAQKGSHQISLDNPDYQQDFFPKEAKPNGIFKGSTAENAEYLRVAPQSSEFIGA

SMILES | IC50 ([1]; values given in μM) | IC50 [2] | IC50 ([1]; unit inferred)
COc1cc2nc(C)nc(NC(C)c3ccc(-c4ccccc4CN)s3)c2cc1OC (stereo not shown) [Example 252, N-[1-{5-[2-(aminomethyl)phenyl]thiophen-2-yl}ethyl]-6,7-dimethoxy-2-methylquinazolin-4-amine] | > 20 µM | 0.0802 µM | 
COc1cc2nc(C)nc(NC(C)c3ccc(-c4cc[nH]n4)s3)c2cc1OC (stereo not shown) [Example 222, 6,7-dimethoxy-2-methyl-N-{1-[5-(1H-pyrazol-3-yl)thiophen-2-yl]ethyl}quinazolin-4-amine] | > 20 µM | 3.88 µM | 
C=C(C)c1ccc([C@@H](C)Nc2nc(C)nc3cc(OC)c(OC)cc23)cc1 [Example 203, 6,7-dimethoxy-2-methyl-N-{(1R)-1-[4-(prop-1-en-2-yl)phenyl]ethyl}quinazolin-4-amine] | > 20 µM | 1.37 µM | 
COc1cc2nc(C)nc(NC(C)c3cc(C)c(Br)s3)c2cc1OC (stereo not shown) [Example 183, N-[1-(5-bromo-4-methylthiophen-2-yl)ethyl]-6,7-dimethoxy-2-methylquinazolin-4-amine] | > 20 µM | 2.11 µM | 
COc1cc2nc(C)nc(N[C@H](C)c3cccc(-c4ccccc4)c3)c2cc1OC [Example 193, N-[(1R)-1-(biphenyl-3-yl)ethyl]-6,7-dimethoxy-2-methylquinazolin-4-amine] | > 20 µM | 0.416 µM | 
COc1cc2nc(C)nc(NC(C)c3ccc(-c4ccccc4CN4CC5(COC5)C4)s3)c2cc1OC (stereo not shown) [Example 182, 6,7-di methoxy-2-methyl-N-[1-{5-[2-(2-oxa-6-azaspiro[3.3]hept-6-ylmethyl)phenyl]thiophen-2-yl}ethyl]quinazolin-4-amine] | > 20 µM | 0.051 µM | 
COc1cc2nc(C)nc(NC(C)c3ccc(-c4ccccc4C(N)=O)s3)c2cc1OC (stereo not shown) [Example 240, 2-(5-{1-[(6,7-dimethoxy-2-methylquinazolin-4-yl)amino]ethyl}thiophen-2-yl)benzamide] | > 20 µM | 3.21 µM | 
COc1cc2nc(C)nc(NC(C)c3cc(Br)cc4c3OCC4)c2cc1OC (stereo not shown) [Example 214, N-[1-(5-bromo-2,3-dihydro-1-benzofuran-7-yl)ethyl]-6,7-dimethoxy-2-methylquinazolin-4-amine] | > 20 µM | 3.33 µM | 
COc1cc2nc(C)nc(N[C@H](C)c3cccc(Cl)c3)c2cc1OC [Example 2, N-[(1R)-1-(3-chlorophenyl)ethyl]-6,7-dimethoxy-2-methylquinazolin-4-amine] |  | 0.127 µM | 16.3 µM
COc1cc2nc(C)nc(NC(C)c3ccc(-c4ccccc4N)s3)c2cc1OC (stereo not shown) [Example 243, N-{1-[5-(2-aminophenyl)thiophen-2-yl]ethyl}-6,7-dimethoxy-2-methylquinazolin-4-amine] | > 20 µM | 0.252 µM | 
COc1cc2nc(C)nc(N[C@H](C)c3cccc(S(C)(=O)=O)c3)c2cc1OC [Example 198, 6,7-dimethoxy-2-methyl-N-{(1R)-1-[3-(methylsulfonyl)phenyl]ethyl}quinazolin-4-amine] | > 20 µM | 0.291 µM | 
COc1cc2nc(C)nc(NC(C)c3ccc4nsnc4c3)c2cc1OC (stereo not shown) [Example 229, N-[1-(2,1,3-benzothiadiazol-5-yl)ethyl]-6,7-dimethoxy-2-methylquinazolin-4-amine] | > 20 µM | 6.95 µM | 
COc1cc2nc(C)nc(NC(C)c3ccc(-c4ccccc4CN4CCC(F)(F)C4)s3)c2cc1OC (stereo not shown) [Example 223, N-[1-(5-{2-[(3,3-difluoropyrrolidin-1-yl)methyl]phenyl}thiophen-2-yl)ethyl]-6,7-dimethoxy-2-methylquinazolin-4-amine] | > 20 µM | 2.11 µM | 
COc1cc2nc(C)nc(NC(C)c3ccc(-c4cnn(CCO)c4)s3)c2cc1OC (stereo not shown) [Example 218, 2-[4-(5-{1-[(6,7-dimethoxy-2-methylquinazolin-4-yl)amino]ethyl}thiophen-2-yl)-1H-pyrazol-1-yl]ethanol] | > 20 µM | 1.96 µM | 
